Source: patent US11021457B2, “Class of isoindolone-imide ring-1,3-dione-2-ene compounds, composition and use thereof” (WIGEN BIOMEDICINE TECHNOLOGY (SHANGHAI) CO., LTD., priority 2017, dated 2021)

Experiments:
Assay type in all cases: cell-based
Conditions in all cases: compound concentration 50 μM, 72 hours
BxPC-3 = assay: Inhibition of tumor cell proliferation, CellTiter-Glo, BxPC-3
Protocol: (§1) For various cell lines, the corresponding complete medium was used, and culture was carried out in an incubator at 37° C. with 5% CO2. The cells were counted, and inoculated into a 96-well plate at 2000-10000 cells/100 μl per well according to the cell volume and growth rate. The suspended cells were treated immediately, and the adherent cells were treated after adherence. The CellTiter-Glo method was used to detect the changes in cell viability 72 hours after the administration, and the cell survival rate at different concentrations was calculated by a formula: Survival rate (%)=(RLU of treatment well−RLU of blank well)/(RLU of control well−RLU of blank well)×100.
(§2) Method for expressing the inhibitory activity of the compounds against the proliferation of tumor cells: Evaluation was made based on the cell survival rate at a compound concentration of 50 μM. 60≤survival rate (%)<90 is considered to have low inhibitory activity against the proliferation of tumor cells (+); 30<survival rate (%)≤60 is considered to have moderate inhibitory activity against the proliferation of tumor cells (++); and survival rate (%)≤30 is considered to have high inhibitory activity against the proliferation of tumor cells (+++).

MDA-MB-453 = assay: Inhibition of tumor cell proliferation, CellTiter-Glo, MDA-MB-453
Protocol: as §1, §2

K562 = assay: Inhibition of tumor cell proliferation, CellTiter-Glo, K562
Protocol: as §1, §2

SU-DHL6 = assay: Inhibition of tumor cell proliferation, CellTiter-Glo, SU-DHL6
Protocol: as §1, §2

RPMI-8226 = assay: Inhibition of tumor cell proliferation, CellTiter-Glo, RPMI-8226
Protocol: as §1, §2

A549 = assay: Inhibition of tumor cell proliferation, CellTiter-Glo, A549
Protocol: as §1, §2

Row | SMILES | Inhibitory activity against proliferation (cell survival rate) BxPC-3 (BxPC-3) | Inhibitory activity against proliferation (cell survival rate) MDA-MB-453 (MDA-MB-453) | Inhibitory activity against proliferation (cell survival rate) K562 (K562) | Inhibitory activity against proliferation (cell survival rate) SU-DHL6 (SU-DHL6) | Inhibitory activity against proliferation (cell survival rate) RPMI-8226 (RPMI-8226) | Inhibitory activity against proliferation (cell survival rate) A549 (A549) | cell survival rate (%) at 50 µM (BxPC-3; Homo sapiens, BXPC-3, read-out: Inhibitory activity against proliferation (cell survival rate) BxPC-3) [%] | cell survival rate (%) at 50 µM (MDA-MB-453; Homo sapiens, MDA-MB-453, read-out: Inhibitory activity against proliferation (cell survival rate) MDA-MB-453) [%] | cell survival rate (%) at 50 µM (K562; Homo sapiens, K562, read-out: Inhibitory activity against proliferation (cell survival rate) K562) [%] | cell survival rate (% of control) at 50 µM (SU-DHL6; Homo sapiens, SU-DHL-6, read-out: Inhibitory activity against proliferation (cell survival rate) SU-DHL6) [%] | cell survival rate (% of control) at 50 µM (RPMI-8226; Homo sapiens, RPMI-8226, read-out: Inhibitory activity against proliferation (cell survival rate) RPMI-8226) [%] | cell survival rate (% of control) at 50 µM (A549; Homo sapiens, A549, read-out: Inhibitory activity against proliferation (cell survival rate) A549) [%]
1 | O=C1CCC(N2C(=O)c3cccc(NC=C4C(=O)CC(c5ccccc5)CC4=O)c3C2=O)C(=O)N1 (centres unmarked) [Compound 2] | + (60≤survival rate (%)<90) | + (60≤survival rate (%)<90) | +++ (survival rate (%)≤30) | +++ (survival rate (%)≤30) | ++ (30<survival rate (%)≤60) | ++ (30<survival rate (%)≤60) | – | – | – | – | – | –
2 | Cc1ccccc1C1CC(=O)C(=CNc2cccc3c2CN(C2CCC(=O)NC2=O)C3=O)C(=O)C1 (centres unmarked) [Compound 4] | + (60≤survival rate (%)<90) | + (60≤survival rate (%)<90) | ++ (30<survival rate (%)≤60) | + (60≤survival rate (%)<90) | +++ (survival rate (%)≤30) | + (60≤survival rate (%)<90) | – | – | – | – | – | –
3 | O=C1CCC(N2Cc3cc(NC=C4C(=O)CC(c5ccccc5)CC4=O)ccc3C2=O)C(=O)N1 (centres unmarked) [Compound 8] | ++ (30<survival rate (%)≤60) | + (60≤survival rate (%)<90) | ++ (30<survival rate (%)≤60) | + (60≤survival rate (%)<90) | ++ (30<survival rate (%)≤60) | ++ (30<survival rate (%)≤60) | – | – | – | – | – | –
4 | O=C1CCC(N2C(=O)c3ccc(NC=C4C(=O)CC(c5ccccc5)CC4=O)cc3C2=O)C(=O)N1 (centres unmarked) [Compound 9] | ++ (30<survival rate (%)≤60) | + (60≤survival rate (%)<90) | ++ (30<survival rate (%)≤60) | + (60≤survival rate (%)<90) | ++ (30<survival rate (%)≤60) | ++ (30<survival rate (%)≤60) | – | – | – | – | – | –
5 | O=C1CCC(N2Cc3ccc(NC=C4C(=O)CC(c5ccccc5)CC4=O)cc3C2=O)C(=O)N1 (centres unmarked) [Compound 10] | ++ (30<survival rate (%)≤60) | + (60≤survival rate (%)<90) | ++ (30<survival rate (%)≤60) | + (60≤survival rate (%)<90) | ++ (30<survival rate (%)≤60) | + (60≤survival rate (%)<90) | – | – | – | – | – | –
6 | O=C1CCC(N2Cc3c(NC=C4C(=O)CC(c5ccc(OC(F)(F)F)cc5)CC4=O)cccc3C2=O)C(=O)N1 (centres unmarked) [Compound 22] | ++ (30<survival rate (%)≤60) | ++ (30<survival rate (%)≤60) | + (60≤survival rate (%)<90) | + (60≤survival rate (%)<90) | + (60≤survival rate (%)<90) | + (60≤survival rate (%)<90) | – | – | – | – | – | –
7 | O=C1CCC(N2Cc3c(NC=C4C(=O)CC(c5ccccc5C(F)(F)F)CC4=O)cccc3C2=O)C(=O)N1 (centres unmarked) [Compound 23] | ++ (30<survival rate (%)≤60) | ++ (30<survival rate (%)≤60) | ++ (30<survival rate (%)≤60) | +++ (survival rate (%)≤30) | +++ (survival rate (%)≤30) | +++ (survival rate (%)≤30) | – | – | – | – | – | –
8 | O=C1CCC(N2Cc3c(NC=C4C(=O)CC(c5ccccc5F)CC4=O)cccc3C2=O)C(=O)N1 (centres unmarked) [Compound 24] | ++ (30<survival rate (%)≤60) | ++ (30<survival rate (%)≤60) | + (60≤survival rate (%)<90) | +++ (survival rate (%)≤30) | + (60≤survival rate (%)<90) | ++ (30<survival rate (%)≤60) | – | – | – | – | – | –
9 | O=C1CCC(N2Cc3c(NC=C4C(=O)CC(c5cccc6sccc56)CC4=O)cccc3C2=O)C(=O)N1 (centres unmarked) [Compound 27] | + (60≤survival rate (%)<90) | +++ (survival rate (%)≤30) | +++ (survival rate (%)≤30) | +++ (survival rate (%)≤30) | +++ (survival rate (%)≤30) | +++ (survival rate (%)≤30) | – | – | – | – | – | –
10 | O=C1CCC(N2Cc3c(NC=C4C(=O)CC(c5ccccc5)C(F)C4=O)cccc3C2=O)C(=O)N1 (centres unmarked) [Compound 28] | – | – | – | – | – | – | 30 to 60 | ≤ 30 | ≤ 30 | ≤ 30 | ≤ 30 | ≤ 30
11 | O=C1CCC(N2Cc3c(NC=C4C(=O)CC(c5cccc6ccccc56)CC4=O)cccc3C2=O)C(=O)N1 (centres unmarked) [Compound 29] | ++ (30<survival rate (%)≤60) | +++ (survival rate (%)≤30) | +++ (survival rate (%)≤30) | ++ (30<survival rate (%)≤60) | +++ (survival rate (%)≤30) | +++ (survival rate (%)≤30) | – | – | – | – | – | –
12 | O=C1CCC(N2Cc3c(NC=C4C(=O)CC(c5c6ccccc6cc6ccccc56)CC4=O)cccc3C2=O)C(=O)N1 (centres unmarked) [Compound 30] | + (60≤survival rate (%)<90) | +++ (survival rate (%)≤30) | +++ (survival rate (%)≤30) | +++ (survival rate (%)≤30) | +++ (survival rate (%)≤30) | +++ (survival rate (%)≤30) | – | – | – | – | – | –
13 | CN(C)c1ccc(Br)c(C2CC(=O)C(=CNc3cccc4c3CN(C3CCC(=O)NC3=O)C4=O)C(=O)C2)c1 (centres unmarked) [Compound 31] | + (60≤survival rate (%)<90) | +++ (survival rate (%)≤30) | +++ (survival rate (%)≤30) | +++ (survival rate (%)≤30) | +++ (survival rate (%)≤30) | +++ (survival rate (%)≤30) | – | – | – | – | – | –
14 | O=C1CCC(N2Cc3c(NC=C4C(=O)CC(C5CCCCC5)CC4=O)cccc3C2=O)C(=O)N1 (centres unmarked) [Compound 131] | + (60≤survival rate (%)<90) | +++ (survival rate (%)≤30) | ++ (30<survival rate (%)≤60) | + (60≤survival rate (%)<90) | +++ (survival rate (%)≤30) | – | – | – | – | – | – | –
